# The supplement of paper PMC10307832
# Columns and labels:
# Test in all cases: relative viability (nuclei count vs DMSO), 5 days (fraction); higher = more cells survive
# Midostaurin + Bortezomib = compound: CO[C@@H]1[C@H](N(C)C(=O)c2ccccc2)C[C@H]2O[C@]1(C)n1c3ccccc3c3c4c(c5c6ccccc6n2c5c31)C(=O)NC4 [Midostaurin] + CC(C)C[C@H](NC(=O)[C@H](Cc1ccccc1)NC(=O)c1cnccn1)B(O)O [Bortezomib] (partner 0.002 µM)
# In short: (§1)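 Nuclei were stained with Hoechst during a one-step fixation (final 0.05% Triton X-100, 1% formaldehyde, 1 ug/ml Hoechst) carried out 5 days after dosing, then counted on 4× images. The cells, lung cancer lines in 1536-well plates, had been dosed by pin tool the day after seeding with one drug alone or a fixed anchor-drug dose plus five library-drug doses (not always all listed) in √10 steps. Relative viability is the nuclei count in treated wells divided by that in vehicle wells, and each value is the median of duplicate plates.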
# Midostaurin + Navitoclax = compound: CO[C@@H]1[C@H](N(C)C(=O)c2ccccc2)C[C@H]2O[C@]1(C)n1c3ccccc3c3c4c(c5c6ccccc6n2c5c31)C(=O)NC4 [Midostaurin] + CC1(C)CCC(c2ccc(Cl)cc2)=C(CN2CCN(c3ccc(C(=O)NS(=O)(=O)c4ccc(N[C@H](CCN5CCOCC5)CSc5ccccc5)c(S(=O)(=O)C(F)(F)F)c4)cc3)CC2)C1 [Navitoclax] (partner 0.5 µM)
# In short: as §1
# Midostaurin + Pemetrexed = compound: CO[C@@H]1[C@H](N(C)C(=O)c2ccccc2)C[C@H]2O[C@]1(C)n1c3ccccc3c3c4c(c5c6ccccc6n2c5c31)C(=O)NC4 [Midostaurin] + Nc1nc2[nH]cc(CCc3ccc(C(=O)N[C@@H](CCC(=O)O)C(=O)O)cc3)c2c(=O)[nH]1 [Pemetrexed] (partner 0.2 µM)
# In short: as §1
# [1] = compound: COc1cc(-c2nn([C@H]3CC[C@H](N4CCN(C(C)=O)CC4)CC3)c3ncnc(N)c23)ccc1NC(=O)c1cc2ccccc2n1C + N=C(N)NC(=N)NCCc1ccccc1 [Phenformin] (partner 250 µM)
# In short: as §1
# [2] = compound: COc1cc(-c2nn([C@H]3CC[C@H](N4CCN(C(C)=O)CC4)CC3)c3ncnc(N)c23)ccc1NC(=O)c1cc2ccccc2n1C + Nc1nc2[nH]cc(CCc3ccc(C(=O)N[C@@H](CCC(=O)O)C(=O)O)cc3)c2c(=O)[nH]1 [Pemetrexed] (partner 0.2 µM)
# In short: as §1
Cell Line,relative viability (Midostaurin + Bortezomib; first compound 0.01 µM),relative viability (Midostaurin + Bortezomib; first compound 0.03162 µM),relative viability (Midostaurin + Bortezomib; first compound 0.1 µM),relative viability (Midostaurin + Bortezomib; first compound 0.3162 µM),relative viability (Midostaurin + Navitoclax; first compound 0.01 µM),relative viability (Midostaurin + Navitoclax; first compound 0.03162 µM),relative viability (Midostaurin + Navitoclax; first compound 0.1 µM),relative viability (Midostaurin + Navitoclax; first compound 0.3162 µM),relative viability (Midostaurin + Pemetrexed; first compound 0.01 µM),relative viability (Midostaurin + Pemetrexed; first compound 0.03162 µM),relative viability (Midostaurin + Pemetrexed; first compound 0.1 µM),relative viability (Midostaurin + Pemetrexed; first compound 0.3162 µM),relative viability ([1]; first compound 0.0128 µM),relative viability ([1]; first compound 0.04048 µM),relative viability ([1]; first compound 0.128 µM),relative viability ([1]; first compound 1.28 µM),relative viability ([2]; first compound 0.0128 µM),relative viability ([2]; first compound 0.04048 µM),relative viability ([2]; first compound 0.128 µM),relative viability ([2]; first compound 1.28 µM)
201T,1.08,1.04,1.05,1.13,1.19,1.2,1.17,1.25,0.345,0.311,0.323,0.32,0.448,0.446,0.401,0.353,0.394,0.288,0.316,0.309
A549,–,–,–,–,1.2,1.08,1.08,0.77,–,–,–,–,0.178,0.203,0.151,0.185,–,–,–,–
A-427,0.961,0.939,0.992,0.899,0.977,0.859,0.883,0.767,1.04,0.888,0.94,1.08,0.335,–,0.268,0.254,0.972,1.07,0.906,0.93
ABC-1,0.316,0.289,0.285,0.292,–,–,–,–,–,–,–,–,0.231,0.245,0.225,0.243,–,–,–,–
BEN,0.797,0.841,0.909,1.09,0.0719,0.0568,0.0815,0.064,0.809,0.674,0.665,0.752,0.235,0.272,0.276,0.218,0.686,0.814,0.871,0.664
CAL-12T,1,0.922,0.88,0.796,1.44,0.981,1.05,1.2,1.19,1.19,1.28,0.765,0.588,0.465,0.572,0.416,1.39,1.21,1.15,1.12
COR-L23,0.871,0.957,0.936,0.81,0.99,0.966,0.87,0.925,0.195,0.205,0.195,0.188,0.424,0.559,0.413,0.434,0.193,0.206,0.189,0.204
COR-L 105,0.823,0.804,0.668,0.499,0.733,0.941,0.51,0.862,1.15,0.945,1.11,0.873,0.474,0.58,0.4,0.232,1.08,1.11,1.1,0.836
Calu-6,0.934,0.973,0.96,0.791,0.69,0.757,0.709,0.697,–,–,–,–,–,–,–,–,–,–,–,–
ChaGo-K-1,0.985,1.28,0.759,1.12,0.909,1.36,0.915,1.25,0.25,0.266,0.256,0.277,0.472,0.491,0.417,0.431,0.258,0.26,0.252,0.237
EBC-1,0.756,0.485,0.502,0.427,0.49,0.453,0.429,0.312,–,–,–,–,–,–,–,–,–,–,–,–
EKVX,1.01,0.995,0.947,0.9,0.907,0.955,0.893,0.905,0.514,0.349,0.379,0.404,0.234,0.245,0.211,0.199,0.43,0.4,0.373,0.374
EMC-BAC-2,1.08,0.998,1.04,1.1,1.19,1.09,0.981,1.08,0.407,0.431,0.383,0.457,0.563,0.633,0.499,0.422,0.445,0.557,0.426,0.493
EPLC-272H,0.921,0.927,1.05,1.11,1.11,0.96,0.856,1.27,0.229,0.357,0.256,0.256,0.46,–,0.27,0.282,0.406,0.338,0.287,0.253
H3255,0.857,0.832,0.731,0.789,0.575,0.587,0.488,0.562,0.571,0.494,0.529,0.579,0.347,0.297,0.36,0.282,0.628,0.567,0.578,0.489
HARA,1.12,1.03,1.07,1.12,1.13,1.12,1.14,1.14,0.225,0.309,0.222,0.239,0.426,0.533,0.41,0.332,0.213,0.233,0.216,0.184
HCC-15,1.04,0.946,0.999,1.08,0.721,0.697,0.71,0.704,0.22,0.229,0.238,0.199,0.525,0.447,0.476,0.42,0.227,0.228,0.198,0.225
HCC-44,0.84,0.881,0.796,0.762,0.949,0.982,0.831,0.96,0.604,0.628,0.657,0.663,0.367,0.187,0.305,0.22,0.719,0.742,0.607,0.687
